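Briefly, cells in 96-well plates were exposed to five compound concentrations for 48 h, and endpoints were estimated by linear interpolation. At the GI50, growth is halved. Definition used: TGI = concentration required for complete inhibition of growth.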
Experiments:
Assay in all cases: NCI tumour cell line growth inhibition, 48 h
SR leukemia = test system: SR leukemia
MALME-3M melanoma = test system: MALME-3M melanoma
HS 578T breast = test system: HS 578T breast
SF-295 CNS = test system: SF-295 CNS
COLO 205 colon = test system: COLO 205 colon
SN12C renal = test system: SN12C renal
SK-MEL-28 melanoma = test system: SK-MEL-28 melanoma
RPMI-8226 leukemia = test system: RPMI-8226 leukemia
CAKI-1 renal = test system: CAKI-1 renal
UACC-257 melanoma = test system: UACC-257 melanoma
K-562 leukemia = test system: K-562 leukemia
HCT-116 colon = test system: HCT-116 colon
TK-10 renal = test system: TK-10 renal
EKVX NSCLC = test system: EKVX NSCLC
SK-MEL-5 melanoma = test system: SK-MEL-5 melanoma
UO-31 renal = test system: UO-31 renal
MDA-MB-231 breast = test system: MDA-MB-231 breast
SF-539 CNS = test system: SF-539 CNS
M14 melanoma = test system: M14 melanoma
PC-3 prostate = test system: PC-3 prostate
OVCAR-5 ovarian = test system: OVCAR-5 ovarian
A549 NSCLC = test system: A549 NSCLC
786-0 renal = test system: 786-0 renal
MDA-MB-435 = test system: MDA-MB-435
KM12 colon = test system: KM12 colon
UACC-62 melanoma = test system: UACC-62 melanoma
CCRF-CEM leukemia = test system: CCRF-CEM leukemia
HCT-15 colon = test system: HCT-15 colon
SNB-75 CNS = test system: SNB-75 CNS
T-47D breast = test system: T-47D breast
SK-OV-3 ovarian = test system: SK-OV-3 ovarian
SNB-19 CNS = test system: SNB-19 CNS
SK-MEL-2 melanoma = test system: SK-MEL-2 melanoma
HCC-2998 colon = test system: HCC-2998 colon
OVCAR-8 ovarian = test system: OVCAR-8 ovarian
DU-145 prostate = test system: DU-145 prostate
RXF 393 renal = test system: RXF 393 renal
MCF7 breast = test system: MCF7 breast
HOP-92 NSCLC = test system: HOP-92 NSCLC
NCI-H522 lung = test system: NCI-H522 lung
NCI-H226 lung = test system: NCI-H226 lung
HL-60(TB) leukemia = test system: HL-60(TB) leukemia
NCI-H23 lung = test system: NCI-H23 lung
NCI/ADR-RES ovarian = test system: NCI/ADR-RES ovarian
IGROV1 ovarian = test system: IGROV1 ovarian
NCI-H460 lung = test system: NCI-H460 lung
ACHN renal = test system: ACHN renal
U251 CNS = test system: U251 CNS
HOP-62 NSCLC = test system: HOP-62 NSCLC
HT29 colon = test system: HT29 colon
MOLT-4 leukemia = test system: MOLT-4 leukemia
SF-268 CNS = test system: SF-268 CNS
A498 renal = test system: A498 renal
BT-549 breast = test system: BT-549 breast
SW-620 colon = test system: SW-620 colon
OVCAR-4 ovarian = test system: OVCAR-4 ovarian

Nc1ccccc1NC(=O)c1ccc(NC(=O)C/C=C/c2cccnc2)cc1
GI50 (SR leukemia): 382 nM
TGI (SR leukemia): > 50000 nM
GI50 (MALME-3M melanoma): 247 nM
TGI (MALME-3M melanoma): 3560 nM
GI50 (HS 578T breast): 1660 nM
TGI (HS 578T breast): > 50000 nM
GI50 (SF-295 CNS): 1670 nM
TGI (SF-295 CNS): 11300 nM
GI50 (COLO 205 colon): 813 nM
TGI (COLO 205 colon): 7100 nM
GI50 (SN12C renal): 320 nM
TGI (SN12C renal): > 50000 nM
GI50 (SK-MEL-28 melanoma): 962 nM
TGI (SK-MEL-28 melanoma): 2650 nM
GI50 (RPMI-8226 leukemia): 605 nM
TGI (RPMI-8226 leukemia): 5570 nM
GI50 (CAKI-1 renal): 2390 nM
TGI (CAKI-1 renal): > 50000 nM
GI50 (UACC-257 melanoma): 1230 nM
TGI (UACC-257 melanoma): > 50000 nM
GI50 (K-562 leukemia): 289 nM
TGI (K-562 leukemia): > 50000 nM
GI50 (HCT-116 colon): 176 nM
TGI (HCT-116 colon): 4370 nM
GI50 (TK-10 renal): 103 nM
TGI (TK-10 renal): > 50000 nM
GI50 (EKVX NSCLC): 2250 nM
TGI (EKVX NSCLC): > 50000 nM
GI50 (SK-MEL-5 melanoma): 957 nM
TGI (SK-MEL-5 melanoma): 1910 nM
GI50 (UO-31 renal): 1540 nM
TGI (UO-31 renal): > 50000 nM
GI50 (MDA-MB-231 breast): 6420 nM
TGI (MDA-MB-231 breast): > 50000 nM
GI50 (SF-539 CNS): 181 nM
TGI (SF-539 CNS): 26400 nM
GI50 (M14 melanoma): 1370 nM
TGI (M14 melanoma): > 50000 nM
GI50 (PC-3 prostate): 1260 nM
TGI (PC-3 prostate): > 50000 nM
GI50 (OVCAR-5 ovarian): 803 nM
TGI (OVCAR-5 ovarian): > 50000 nM
GI50 (A549 NSCLC): 2800 nM
TGI (A549 NSCLC): > 50000 nM
GI50 (786-0 renal): 2740 nM
TGI (786-0 renal): > 50000 nM
GI50 (MDA-MB-435): 1390 nM
TGI (MDA-MB-435): 8020 nM
GI50 (KM12 colon): 8480 nM
TGI (KM12 colon): > 50000 nM
GI50 (UACC-62 melanoma): 1060 nM
TGI (UACC-62 melanoma): 4980 nM
GI50 (CCRF-CEM leukemia): 225 nM
TGI (CCRF-CEM leukemia): > 50000 nM
GI50 (HCT-15 colon): 1320 nM
TGI (HCT-15 colon): > 50000 nM
GI50 (SNB-75 CNS): 1260 nM
TGI (SNB-75 CNS): > 50000 nM
GI50 (T-47D breast): 623 nM
TGI (T-47D breast): > 50000 nM
GI50 (SK-OV-3 ovarian): 2400 nM
TGI (SK-OV-3 ovarian): > 50000 nM
GI50 (SNB-19 CNS): 2250 nM
TGI (SNB-19 CNS): > 50000 nM
GI50 (SK-MEL-2 melanoma): 2390 nM
TGI (SK-MEL-2 melanoma): > 50000 nM
GI50 (HCC-2998 colon): 953 nM
TGI (HCC-2998 colon): 4540 nM
GI50 (OVCAR-8 ovarian): 159 nM
TGI (OVCAR-8 ovarian): > 50000 nM
GI50 (DU-145 prostate): 905 nM
TGI (DU-145 prostate): 2970 nM
GI50 (RXF 393 renal): 784 nM
TGI (RXF 393 renal): 3860 nM
GI50 (MCF7 breast): 1090 nM
TGI (MCF7 breast): 8320 nM
GI50 (HOP-92 NSCLC): 341 nM
TGI (HOP-92 NSCLC): 8330 nM
GI50 (NCI-H522 lung): 513 nM
TGI (NCI-H522 lung): > 50000 nM
GI50 (NCI-H226 lung): 1430 nM
TGI (NCI-H226 lung): > 50000 nM
GI50 (HL-60(TB) leukemia): 448 nM
TGI (HL-60(TB) leukemia): > 50000 nM
GI50 (NCI-H23 lung): 1550 nM
TGI (NCI-H23 lung): 26600 nM
GI50 (NCI/ADR-RES ovarian): 3230 nM
TGI (NCI/ADR-RES ovarian): > 50000 nM
GI50 (IGROV1 ovarian): 1140 nM
TGI (IGROV1 ovarian): > 50000 nM
GI50 (NCI-H460 lung): 1450 nM
TGI (NCI-H460 lung): > 50000 nM
GI50 (ACHN renal): 2240 nM
TGI (ACHN renal): > 50000 nM
GI50 (U251 CNS): 1040 nM
TGI (U251 CNS): > 50000 nM
GI50 (HOP-62 NSCLC): 2000 nM
TGI (HOP-62 NSCLC): > 50000 nM
GI50 (HT29 colon): 1170 nM
TGI (HT29 colon): > 50000 nM
GI50 (MOLT-4 leukemia): 1050 nM
TGI (MOLT-4 leukemia): > 50000 nM
GI50 (SF-268 CNS): 1930 nM
TGI (SF-268 CNS): > 50000 nM
GI50 (A498 renal): 586 nM
TGI (A498 renal): 2290 nM
GI50 (BT-549 breast): 1170 nM
TGI (BT-549 breast): 4720 nM
GI50 (SW-620 colon): 231 nM
TGI (SW-620 colon): > 50000 nM
GI50 (OVCAR-4 ovarian): 3680 nM
TGI (OVCAR-4 ovarian): > 50000 nM
